# Data taken from patent publication US11141422B2, “Methods for treating pulmonary hypertension” (Chiesi Farmaceutici S.p.A., priority 2011, dated 2021).
# Entries after “also recorded” stand apart in the source; their conditions may differ.
# Assays:
# [1] = test system: anaesthetized, mechanically ventilated pigs in normoxia; test: Response to ADP infusion during normoxia: haemodynamic measurements in pigs (Protocol 3); type: in vivo
# Protocol: (§1) Haemodynamic measurements were performed in six anaesthetized, mechanically ventilated pigs (30.2±0.7 kg) in normoxia (FiO2˜0.21) and hypoxia (FiO2˜0.10) prior to and during right atrial cangrelor infusion at a loading dose of 30 μg/kg/min for 10 min, and then a continuous infusion at 4 μg/kg/min for 80 min. Another six pigs (29.3±0.5 kg) were investigated in normoxia before and during right atrial infusion of ADP at 70 μg/kg/min for ˜7 min; as well as before and during simultaneous ADP and cangrelor infusion for ˜7 min at doses of 70 μg/kg/min and 4 μg/kg/min, respectively, after a cangrelor loading dose of 30 μg/kg/min for 10 min. All data are mean±SEM.
# Protocol 3—Response to ADP During Normoxia.
# ADP infusion during normoxia increased MPAP, temporarily to peak at 35.2±1.9 mmHg, 19.3±1.6 mmHg higher (p<0.001) than baseline, to then stabilize at a level 10.4±1.6 mmHg higher (p<0.001) than baseline, and 8.9±1.4 mmHg lower (p<0.001) than the peak, after ˜4-7 min. Also, after ˜4-7 min from initiation of ADP infusion, PVR had increased (p<0.002) by 2.8±0.4 WU and PCWP by 2.5±0.7 mmHg (p<0.019), compared to baseline. ADP infusion during normoxia decreased MAP, first to reach a nadir at 39.8±6.1 mmHg, 48.5±6.0 mmHg lower (p<0.001) than baseline, however, then stabilizing, after ˜4-7 min, at a level not different (p=ns) from, although slightly lower than, baseline, and 41.7±8.9 mmHg higher (p<0.001) than the nadir. MRAP, SVR, CO, HR, SV and blood-O2-consumption were unchanged (p=ns) by ADP infusion during normoxia.
# [2] = test system: anaesthetized, mechanically ventilated pigs in hypoxia (hypoxic pulmonary vasoconstriction); test: Response to cangrelor during hypoxia: haemodynamic measurements in pigs (Protocol 2); type: in vivo; settings: for MPAP decrease compared to hypoxia baseline: hypoxia (FiO2˜0.10), mean±SEM
# Protocol: as §1
# Protocol 2—Response to Cangrelor During Hypoxia.
# Compared to hypoxia baseline, MPAP decreased transiently by 3.3±0.4 (p<0.036) and 3.6±0.6 mmHg (p<0.018), respectively, 10 and 30 min after initiation of cangrelor infusion; but returned to levels not different (p=ns) from baseline 60 and 90 min after initiation of cangrelor infusion. PVR, MRAP, PCWP, MAP, SVR, CO, HR, SV and blood-O2-consumption were unaltered by cangrelor infusion during hypoxia (p=ns).
# [3] = test system: anaesthetized, mechanically ventilated pigs in normoxia (ADP-induced pulmonary vasoconstriction); test: Response to simultaneous ADP and cangrelor infusion during normoxia: haemodynamic measurements in pigs (Protocol 4); type: in vivo
# Protocol: as §1
# Protocol 4—Response to Simultaneous ADP and Cangrelor Infusion.
# (§2) The ˜4-7 min MAP measurement after simultaneous ADP and cangrelor infusion was, however, not different (p=ns) from the measurement with ADP infusion alone. Also, SVR decreased (p<0.024) by 3.2±1.2 WU, as compared to baseline, in response to simultaneous ADP and cangrelor infusion. […] Furthermore, the ˜4-7 min PVR and PCWP measurements after simultaneous ADP and cangrelor infusion were lower (p<0.005 and p<0.022, respectively) than the measurements with ADP infusion alone. Also, the ˜4-7 min SV measurement after simultaneous ADP and cangrelor infusion was higher (p<0.02) than the measurement with ADP infusion alone.
# [4] = test system: anaesthetized, mechanically ventilated pigs in normoxia; test: Cangrelor infusion alone during normoxia: haemodynamic measurements in pigs; type: in vivo; settings: p=ns
# Protocol: as §1, §2
# [5] = cited from earlier work
# dog thrombosis model = settings: compared with placebo; animals receiving tissue-type plasminogen activator and heparin after thrombus formation; cited from earlier work
# [6] = ˜4-7 min from initiation of ADP infusion
# [7] = during hypoxia, p=ns, listed as Cangrelor
# [8] = simultaneous ADP and cangrelor infusion, normoxia
# [9] = simultaneous ADP and cangrelor infusion, after ˜4-7 min
# [10] = simultaneous ADP and cangrelor infusion, p=ns
structure (smiles),measurement,setting,value
"Nc1ncnc2c1ncn2[C@@H]1O[C@H](COP(=O)(O)OP(=O)(O)O)[C@@H](O)[C@H]1O [ADP, adenosine diphosphate]",MAP nadir,[1]; ADP infusion,39.8±6.1 mmHg
same,"MAP nadir, lower than baseline",[1]; ADP infusion,48.5±6.0 mmHg
same,"MPAP peak, higher than baseline",[1]; ADP infusion 70 μg/kg/min,19.3±1.6 mmHg
same,MPAP peak,"[1]; ADP infusion 70 μg/kg/min, mean±SEM",35.2±1.9 mmHg
same,"MAP stabilized level, higher than the nadir","[1]; ADP infusion, after ˜4-7 min",41.7±8.9 mmHg
same,"MPAP stabilized level, higher than baseline","[1]; ADP infusion, after ˜4-7 min",10.4±1.6 mmHg
same,"MPAP stabilized level, lower than the peak","[1]; ADP infusion, after ˜4-7 min",8.9±1.4 mmHg
same,MAP stabilized level compared to baseline,"[1]; ADP infusion, after ˜4-7 min, p=ns",not different
same,CO change by ADP infusion,[1]; p=ns,unchanged; also recorded: tended to decrease
same,HR change by ADP infusion,[1]; p=ns,unchanged
same,MRAP change by ADP infusion,[1]; p=ns,unchanged; also recorded: tended to increase
same,SV change by ADP infusion,[1]; p=ns,unchanged; also recorded: tended to decrease
same,SVR change by ADP infusion,[1]; p=ns,unchanged
same,blood-O2-consumption change by ADP infusion,[1]; p=ns,unchanged; also recorded: tended to decrease
same,PCWP increase compared to baseline,[1]; [6],2.5±0.7 mmHg
same,PVR increase compared to baseline,[1]; [6],2.8±0.4 WU
CSCCNc1nc(SCCC(F)(F)F)nc2c1ncn2[C@@H]1O[C@H](COP(=O)(O)OP(=O)(O)C(Cl)(Cl)P(=O)(O)O)[C@@H](O)[C@H]1O [cangrelor],CO change by cangrelor infusion,"[2]; during hypoxia, p=ns",unaltered
same,HR change by cangrelor infusion,"[2]; during hypoxia, p=ns",unaltered
same,MAP change by cangrelor infusion,"[2]; during hypoxia, p=ns",unaltered
same,MRAP change by cangrelor infusion,"[2]; during hypoxia, p=ns",unaltered
same,PCWP change by cangrelor infusion,"[2]; during hypoxia, p=ns",unaltered
same,PVR change by cangrelor infusion,"[2]; during hypoxia, p=ns",unaltered
same,SV change by cangrelor infusion,"[2]; during hypoxia, p=ns",unaltered
same,SVR change by cangrelor infusion,"[2]; during hypoxia, p=ns",unaltered
same,blood-O2-consumption change by cangrelor infusion,"[2]; during hypoxia, p=ns",unaltered
same,MAP change by cangrelor infusion,[2]; [7],without affecting
same,SVR change by cangrelor infusion,[2]; [7],without affecting
same,blood-O2-consumption change by cangrelor infusion,[2]; [7],without affecting
same,MPAP decrease compared to hypoxia baseline,"[2]; 10 min after initiation of cangrelor infusion (30 μg/kg/min for 10 min, then 4 μg/kg/min)",3.3±0.4 mmHg
same,MPAP decrease compared to hypoxia baseline,[2]; 30 min after initiation of cangrelor infusion,3.6±0.6 mmHg
same,MPAP compared to hypoxia baseline,"[2]; hypoxia, 60 and 90 min after initiation of cangrelor infusion, p=ns",not different
same,MPAP decrease (attenuation of acute HPV),"[2]; hypoxia, 10 min after cangrelor infusion was initiated",~12%
same,MPAP decrease (attenuation of acute HPV),"[2]; hypoxia, 30 min after cangrelor infusion was initiated",~14%
same,attenuation of the MPAP peak induced by ADP infusion,[3]; normoxia,34%
same,sustained MPAP increase induced by ADP infusion,[3]; normoxia,totally prevented
same,sustained PVR increase induced by ADP infusion,[3]; normoxia,totally prevented
same,MPAP transient increase compared to baseline (peak),"[3]; normoxia, simultaneous ADP 70 μg/kg/min and cangrelor 4 μg/kg/min after cangrelor loading dose 30 μg/kg/min for 10 min",7.3±1.8 mmHg
same,MPAP peak as share of the peak ADP response without cangrelor,"[3]; normoxia, simultaneous ADP and cangrelor infusion",~66%
same,SVR decrease compared to baseline,[3]; simultaneous ADP and cangrelor infusion,3.2±1.2 WU
same,MAP nadir,[3]; [8],64.9±3.4 mmHg
same,MAP transient decrease compared to baseline,[3]; [8],19.4±3.1 mmHg
same,"MAP stabilized level, higher than the nadir",[3]; [9],12.9±2.2 mmHg
same,"MAP stabilized level, lower than baseline",[3]; [9],6.5±1.2 mmHg
same,"MPAP level, lower than the peak",[3]; [9],7.4±1.5 mmHg
same,MPAP compared to baseline,"[3]; simultaneous ADP and cangrelor infusion, after ˜4-7 min, p=ns",not different
same,˜4-7 min MPAP measurement compared to ADP infusion alone,"[3]; simultaneous ADP and cangrelor infusion, p<0.002",significantly lower
same,˜4-7 min PVR measurement compared to ADP infusion alone,"[3]; simultaneous ADP and cangrelor infusion, p<0.005",lower
same,˜4-7 min SV measurement compared to ADP infusion alone,"[3]; simultaneous ADP and cangrelor infusion, p<0.02",higher
same,˜4-7 min PCWP measurement compared to ADP infusion alone,"[3]; simultaneous ADP and cangrelor infusion, p<0.022",lower
same,MAP nadir compared to the nadir response to ADP alone,"[3]; simultaneous ADP and cangrelor infusion, p<0.027",significantly higher
same,CO change compared to baseline,[3]; [10],unchanged
same,HR change compared to baseline,[3]; [10],unchanged
same,MRAP change compared to baseline,[3]; [10],unchanged
same,PCWP change compared to baseline,[3]; [10],unchanged
same,PVR change compared to baseline,[3]; [10],unchanged
same,SV change compared to baseline,[3]; [10],unchanged
same,blood-O2-consumption change compared to baseline,[3]; [10],unchanged; also recorded: tended to decrease
same,˜4-7 min CO measurement compared to ADP infusion alone,[3]; [10],neither any differences
same,˜4-7 min HR measurement compared to ADP infusion alone,[3]; [10],neither any differences
same,˜4-7 min MAP measurement compared to ADP infusion alone,[3]; [10],not different
same,˜4-7 min SVR measurement compared to ADP infusion alone,[3]; [10],did not differ
same,MAP decrease to ADP,[3]; with cangrelor,attenuated
same,PCWP increase with ADP infusion alone,[3]; with cangrelor,attenuated
same,trend for a SV decrease with ADP infusion alone,[3]; with cangrelor,attenuated
same,any of the haemodynamic variables,[4],did not alter
same,time to steady state concentrations in plasma from start of infusion,[5]; bolus 30 μg/kg and infusion 4 μg/kg/min,≤ 30 min
same,half-life (clearance from plasma),[5]; plasma,3 to 6 min
same,cyclic flow variation,dog thrombosis model,decreased
same,myocardial flow,dog thrombosis model,improved
same,reocclusion,dog thrombosis model,decreased
CCCSc1nc(N[C@@H]2C[C@H]2c2ccc(F)c(F)c2)c2nnn([C@@H]3C[C@H](OCCO)[C@@H](O)[C@H]3O)c2n1 [ticagrelor],cyclic flow variation,dog thrombosis model,decreased
same,myocardial flow,dog thrombosis model,improved
same,reocclusion,dog thrombosis model,decreased
